Measurements reported in patent EP4737445A1, “NOVEL SATURATED HETEROCYCLE-SUBSTITUTED HETEROARYL-CARBONOHYDRAZONOYL DICYANIDE COMPOUND AND USE THEREOF” (Korea Institute of Science and Technology, priority 2023, dated 2025).

How the values were obtained:
Type in all cases: in vivo
TauP301L-BiFC Tg mice [1] = assay: Y-maze test in tau transgenic mice; settings: oral 10 mg/kg, 5 times per week, 19 weeks, vehicle = 60.7%
Description: (§1) Compounds 6, 16, and 20 were orally administered to 8.2-month-old tau transgenic animal model (TauP301L-BiFC tg mouse) 5 times per week at a concentration of 10 mg/kg for a total of 19 weeks (n=10/group). WT mice of similar age to the vehicle-treated group of TauP301L-BiFC mice were used as a control group. Three types of behavioral experiments (Novel Objective Recognition test, Y-maze test, Balance beam test) were performed to confirm the improvement effects on cognitive function and motor function by drug administration, and these experiments and their results were as follows. • (1) Novel Objective Recognition test: To evaluate the object recognition memory ability of mice, two identical objects (Old-Old) were explored for 10 minutes in a 40 cm × 40 cm box. The next day, one object was replaced with a new object (Old-New) and exploration was performed again for 10 minutes, and then the time showing exploratory behavior toward the existing object and the new object was measured. Mice with normal object recognition ability (Recognition index) spent more time exploring the newly changed object, whereas mice with low object recognition ability could not distinguish the new object. The object recognition ability (Recognition index) values were as follows: (RI, Vehicle= 0.48, n.s., #20= 0.59, p<0.05, #6= 0.66, p<0.0001, #16= 0.58, p<0.05). In TauP301L-BiFC mice, the object recognition function improvement effect by drugs #20, #6, and #16 compared to the vehicle group was confirmed. • (2) Y-maze test: A Y-maze test was performed to evaluate the spatial working memory ability of mice. Whether the mice entered the three arms of the Y-maze by spontaneous alternation behavior for a certain period of time was measured through video recording. An increase in the spontaneous alternation ratio was considered as improved working memory ability. […] The time taken to cross a rod with a height of 50 cm and length of 80 cm and the number of times the feet went outside the rod during crossing were measured. […]

TauP301L-BiFC Tg mice [2] = assay: Novel Objective Recognition test in tau transgenic mice; settings: oral 10 mg/kg, 5 times per week, 19 weeks, Vehicle = 0.48
Description: as §1

TauP301L-BiFC Tg mice [3] = assay: Balance beam test in tau transgenic mice; settings: oral 10 mg/kg, 5 times per week, 19 weeks, vehicle = 1.5
Description: as §1

tau = target: T1, tau (Homo sapiens, UniProt P10636, P618L); assay: AT8 (pS202/T205) phospho-tau immunofluorescence of brain tissue; settings: TauP301L-BiFC mice; oral 10 mg/kg, 19 weeks; vehicle = 100%
T1 construct: BiFC fluorescent-protein fragments (two complementary halves); from tissue; host or cells: brain of TauP301L-BiFC transgenic mice
T1 sequence (P10636 1-441 isoform P10636-8 P301L): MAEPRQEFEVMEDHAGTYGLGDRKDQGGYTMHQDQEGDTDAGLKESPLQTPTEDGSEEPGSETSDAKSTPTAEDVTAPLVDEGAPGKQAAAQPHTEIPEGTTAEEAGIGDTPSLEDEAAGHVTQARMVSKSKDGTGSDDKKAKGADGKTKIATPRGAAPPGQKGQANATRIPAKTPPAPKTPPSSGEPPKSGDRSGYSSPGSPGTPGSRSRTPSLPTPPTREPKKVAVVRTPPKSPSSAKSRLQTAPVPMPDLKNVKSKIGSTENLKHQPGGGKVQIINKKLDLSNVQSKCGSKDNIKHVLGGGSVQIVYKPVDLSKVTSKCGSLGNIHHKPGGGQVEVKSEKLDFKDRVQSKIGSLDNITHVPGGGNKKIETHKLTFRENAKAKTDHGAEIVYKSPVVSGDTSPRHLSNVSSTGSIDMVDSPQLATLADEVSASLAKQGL
Description: After oral administration of Compounds 6, 16, and 20 and completion of behavioral experiments, 13.2-month-old TauP301L-BiFC mice were sacrificed to proceed with brain tissue extraction and [2] brain lysate separation and purification. • [1] First, brain tissue extraction, BiFC fluorescence imaging of brain tissue, and tau phosphorylation antibody immunofluorescence were performed through the following process. TauP301L-BiFC mice were perfused with 0.9% saline and fixed with PBS (pH 7.4) solution containing 4% paraformaldehyde. The brain was extracted and fixed in PBS containing 4% paraformaldehyde at 4°C for 48 to 72 hours. For cryoprotection, the brain was transferred to PBS containing 30% sucrose solution and stored at 4°C until it sank. For frozen sectioning, the brain was immersed in O.C.T (Tissue-TEK) and frozen, and then continuously cut using a brain tissue sectioner. Tissue sections with a thickness of 30 µm were stored in PBS containing 0.05% sodium azide at 4°C.
To measure not only tau oligomer formation but also the degree of tau phosphorylation observed in the tau pathology process, immunofluorescence staining using a tau phosphorylation antibody was performed. For brain tissue immunofluorescence image analysis, brain tissue slices (n=10 per group) were stained with AT8 (pS202/T205) antibody (1:200), and the primary antibody was detected using Alexa Fluor 633-labeled anti-mouse secondary antibody (1:500). Fluorescence images (λex=620-640 nm and λem=650-700 nm) were acquired using Axio Scan.Z1 (ZEISS).
The AT8 fluorescence imaging results of a total of two brain tissue regions (hippocampus (CA1), somatosensory cortex) were as follows: • (1) Hippocampus (CA1), vehicle = 100%, #20= 72%, p<0.01, #6= 81%, p<0.05, #16= 76%, p<0.01. • (2) Sensory cortex (SCTX), vehicle = 100%, #20= 54%, p<0.0001, #6= 63%, p<0.001, #16= 57%, p<0.0001.

Row | Compound | spontaneous alternation ratio (Alteration ratio (%)) (TauP301L-BiFC Tg mice [1]) | object recognition ability (Recognition index, RI) (TauP301L-BiFC Tg mice [2]) | Average number of times feet went outside the rod (n) (TauP301L-BiFC Tg mice [3]) | AT8 fluorescence, Hippocampus (CA1) (tau) | AT8 fluorescence, Sensory cortex (SCTX) (tau)
1 | CC1COCCN1c1nc2ccc(NN=C(C#N)C#N)cc2o1 (stereo not drawn) [Compound 16, (2-(3-methylmorpholino)benzo[d]oxazol-6-yl)carbonohydrazonoyl dicyanide] | 76.4% | 0.58 | 0.8 | 76% | 57%
2 | N#CC(C#N)=NNc1ccc2nc(N3C4CCC3COC4)oc2c1 [Compound 20, (2-(3-oxa-8-azabicyclo[3.2.1]octan-8-yl)benzo[d]oxazol-6-yl)carbonohydrazonoyl dicyanide] | 70.8% | 0.59 | 0.7 | 72% | 54%
3 | Cn1c(N2CCOCC2)nc2cc(NN=C(C#N)C#N)ccc21 [Compound 6, (1-methyl-2-morpholino-1H-benzo[d]imidazol-5-yl)carbonohydrazonoyl dicyanide] | 71.1% | 0.66 | 1.1 | 81% | 63%
